# Measurements from patent US9844550B2, “Phtalazinone derivatives and manufacturing process thereof” (ILDONG PHARM CO., LTD., priority 2013, dated 2017).
# Experiments:
# [1] = test system: MDA-MB-436 breast cancer cell line; assay: Cell viability assay (MDA-MB-436); format: cell-based; details: Homo sapiens, 144 h; MDA-MB-436 cells, treated 6 days
# Procedure: 2. Cell Viability Assay (MDA-MB-436)
# (§1) Cell viability assay was performed by using MDA-MB-436 cell line to measure cytotoxicity of compounds in the present invention. MDA-MB-436 breast cancer cell line was seeded into 96-well plates at 37° C. under 5% CO2 atmosphere using DMEM/F12 (Gibco) containing 10% FBS (Hyclone). After 24 hr incubation, cells were treated with the invented compounds at various concentrations for 6 days. The medium was changed every 3 day. 6 days later, A fluorescence reagent was used to determine the IC50 values.
# [2] = test system: Capan-1 pancreatic cancer cell line; assay: Cell viability assay (Capan-1); format: cell-based; details: Homo sapiens, 240 h; Capan-1 cells, treated 10 days
# Procedure: 3. Cell Viability Assay (Capan-1)
# as §1, with “using Capan-1” for “using MDA-MB-436”, “invention. Capan-1 pancreatic” for “invention. MDA-MB-436 breast”, “using IMDM (Sigma)” for “using DMEM/F12 (Gibco)”, “for 10” for “for 6”, “days. After 7-day incubation, the” for “days. The”, “was changed. 10” for “was changed every 3 day. 6”
# Mouse pharmacokinetics = format: in vivo; design: concentration or dose not given beside the values; details: Balb/c male mice, blood samples 15 to 1140 min, LC-MS/MS
# Procedure: To evaluate the pharmacokinetics test, the invented compounds (from I-25 to I-1171) were determined as follows. Blood samples are collected at 15, 30, 60, 120, 240, 480, 1140 min. Quantification is by using a LC-MS/MS method specific to the selected compound. Pharmacokinetics parameters are calculated using WinNonLinnon compartmental analysis software.
Structure (SMILES),IC50 [1],IC50 [2],AUC (Mouse pharmacokinetics)
"O=C(c1cc(Cc2n[nH]c(=O)c3ccccc23)ccc1F)N1CC(NC2CCC2)C1 [Compound I-25, 4-(3-(3-(cyclobutylamino)azetidine-1-carbonyl)-4-fluorobenzyl)phthalazin-1(2H)-one]",5 to 50 nM,300 to 1000 nM,831 ng·h/mL
"O=C(c1cc(Cc2n[nH]c(=O)c3ccccc23)ccc1F)N1CC(NC2CC2)C1 [Compound I-26, 4-(3-(3-(cyclopropylamino)azetidine-1-carbonyl)-4-fluorobenzyl)phthalazin-1(2H)-one]",5 to 50 nM,300 to 1000 nM,3350 ng·h/mL
"O=C(c1cc(Cc2n[nH]c(=O)c3ccccc23)ccc1F)N1CC(NC2CCCCC2)C1 [Compound I-28, 4-(3-(3-(cyclohexylamino)azetidine-1-carbonyl)-4-fluorobenzyl)phthalazin-1(2H)-one]",5 to 50 nM,300 to 1000 nM,
"O=C(c1cc(Cc2n[nH]c(=O)c3ccccc23)ccc1F)N1CC[C@@H](NC2CCC2)C1 [Compound I-30, (R)-4-(3-(3-(cyclobutylamino)pyrrolidine-1-carbonyl)-4-fluorobenzyl)phthalazin-1(2H)-one]",50 to 300 nM,,521 ng·h/mL
"O=C(c1cc(Cc2n[nH]c(=O)c3ccccc23)ccc1F)N1CC[C@@H](NC2CCCC2)C1 [Compound I-31, (R)-4-(3-(3-(cyclopentylamino)pyrrolidine-1-carbonyl)-4-fluorobenzyl)phthalazin-1(2H)-one]",5 to 50 nM,50 to 300 nM,
"CC(CO)NC1CN(C(=O)c2cc(Cc3n[nH]c(=O)c4ccccc34)ccc2F)C1 (centres unmarked) [Compound I-36, 4-(4-fluoro-3-(3-((1-hydroxypropan-2-yl)amino)azetidine-1-carbonyl)benzyl)phthalazin-1(2H)-one]",5 to 50 nM,300 to 1000 nM,
"CCC(CC)NC1CN(C(=O)c2cc(Cc3n[nH]c(=O)c4ccccc34)ccc2F)C1 [Compound I-40, 4-(4-fluoro-3-(3-(pentan-3-ylamino)azetidine-1-carbonyl)benzyl)phthalazin-1(2H)-one]",5 to 50 nM,300 to 1000 nM,
"CC(C)C(C)NC1CN(C(=O)c2cc(Cc3n[nH]c(=O)c4ccccc34)ccc2F)C1 (centres unmarked) [Compound I-41, 4-(4-fluoro-3-(3-((3-methylbutan-2-yl)amino)azetidine-1-carbonyl)benzyl)phthalazin-1(2H)-one]",≤ 5 nM,300 to 1000 nM,
"CC(NC1CN(C(=O)c2cc(Cc3n[nH]c(=O)c4ccccc34)ccc2F)C1)C1CC1 (centres unmarked) [Compound I-42, 4-(3-(3-((1-cyclopropylethyl)amino)azetidine-1-carbonyl)-4-fluorobenzyl)phthalazin-1(2H)-one]",≤ 5 nM,300 to 1000 nM,
"O=C(c1cc(Cc2n[nH]c(=O)c3ccccc23)ccc1F)N1CC(NC2CC3CCC2C3)C1 (centres unmarked) [Compound I-43, 4-(3-(3-(bicyclo[2.2.1]heptan-2-ylamino)azetidine-1-carbonyl)-4-fluorobenzyl)phthalazin-1(2H)-one]",5 to 50 nM,300 to 1000 nM,
"CCC(C)NC1CN(C(=O)c2cc(Cc3n[nH]c(=O)c4ccccc34)ccc2F)C1 (centres unmarked) [Compound I-44, 4-(3-(3-(sec-butylamino)azetidine-1-carbonyl)-4-fluorobenzyl)phthalazin-1(2H)-one]",≤ 5 nM,300 to 1000 nM,
"O=C(c1cc(Cc2n[nH]c(=O)c3ccccc23)ccc1F)N1CC(N2CCC2)C1 [Compound I-75, 4-(3-([1,3′-biazetidine]-1′-carbonyl)-4-fluorobenzyl)phthalazin-1(2H)-one]",5 to 50 nM,,475 ng·h/mL
"COC[C@H](C)NC1CN(C(=O)c2cc(Cc3n[nH]c(=O)c4ccccc34)ccc2F)C1 [Compound I-82, (S)-4-(4-fluoro-3-(3-((1-methoxypropan-2-yl)amino)azetidine-1-carbonyl)benzyl)phthalazin-1(2H)-one]",5 to 50 nM,300 to 1000 nM,
"CC(C#N)NC1CN(C(=O)c2cc(Cc3n[nH]c(=O)c4ccccc34)ccc2F)C1 (centres unmarked) [Compound I-100, 2-((1-(2-fluoro-5-((4-oxo-3,4-dihydrophthalazin-1-yl)methyl)benzoyl)azetidin-3-yl)amino)propanenitrile]",300 to 1000 nM,300 to 1000 nM,
"O=C(c1cc(Cc2n[nH]c(=O)c3ccccc23)ccc1F)N1CC[C@@H](Nc2ncccn2)C1 [Compound I-120, (R)-4-(4-fluoro-3-(3-(Pyrimidin-2-ylamino)pyrrolidine-1-carbonyl)benzyl)phthalazin-1(2H)-one]",≤ 5 nM,,510 ng·h/mL
"O=C(c1cc(Cc2n[nH]c(=O)c3ccccc23)ccc1F)N1CC[C@@H](Nc2cc(C(F)(F)F)ccn2)C1 [Compound I-132, (R)-4-(4-fluoro-3-(3-((4-(trifluoromethyl)pyridin-2-yl)amino)pyrrolidine-1-carbonyl)benzyl)phthalazin-1(2H)-one]",≤ 5 nM,5 to 50 nM,
"O=C(c1cc(Cc2n[nH]c(=O)c3ccccc23)ccc1F)N1CC[C@@H](N2CCC2)C1 [Compound I-135, (R)-4-(3-(3-(azetidin-1-yl)pyrrolidine-1-carbonyl)-4-fluorobenzyl)phthalazin-1(2H)-one]",5 to 50 nM,,153 ng·h/mL
"O=C(c1cc(Cc2n[nH]c(=O)c3ccccc23)ccc1F)N1CC[C@@H](N2CCCC2)C1 [Compound I-136, (R)-4-(3-([1,3′-bipyrrolidine]-1′-carbonyl)-4-fluorobenzyl)phthalazin-1(2H)-one]",5 to 50 nM,,
"O=C(c1cc(Cc2n[nH]c(=O)c3ccccc23)ccc1F)N1CC[C@@H](N2CCCCC2)C1 [Compound I-137, (R)-4-(4-fluoro-3-(3-(piperidin-1-yl)pyrrolidine-1-carbonyl)benzyl)phthalazin-1(2H)-one]",50 to 300 nM,,
"Cc1ccc(N[C@@H]2CCN(C(=O)c3cc(Cc4n[nH]c(=O)c5ccccc45)ccc3F)C2)cc1 [Compound I-138, (R)-4-(4-fluoro-3-(3-(p-tolylamino)pyrrolidine-1-carbonyl)benzyl)phthalazin-1(2H)-one]",300 to 1000 nM,,
"O=C(c1cc(Cc2n[nH]c(=O)c3ccccc23)ccc1F)N1CC(CN2CCCC2)C1 [Compound I-140, 4-(4-fluoro-3-(3-(pyrrolidin-1-ylmethyl)azetidine-1-carbonyl)benzyl)phthalazin-1(2H)-one]",≤ 5 nM,300 to 1000 nM,295 ng·h/mL
"O=C(c1cc(Cc2n[nH]c(=O)c3ccccc23)ccc1F)N1CC(CN2CCCCC2)C1 [Compound I-141, 4-(4-fluoro-3-(3-(piperidin-1-ylmethyl)azetidine-1-carbonyl)benzyl)phthalazin-1(2H)-one]",5 to 50 nM,300 to 1000 nM,193 ng·h/mL
"O=C(c1cc(Cc2n[nH]c(=O)c3ccccc23)ccc1F)N1CC(CN2CCC2)C1 [Compound I-142, 4-(3-(3-(azetidin-1-ylmethyl)azetidine-1-carbonyl)-4-fluorobenzyl)phthalazin-1(2H)-one]",5 to 50 nM,300 to 1000 nM,88.8 ng·h/mL
"CC(C)NCC1CN(C(=O)c2cc(Cc3n[nH]c(=O)c4ccccc34)ccc2F)C1 [Compound I-144, 4-(4-fluoro-3-(3-((isopropylamino)methyl)azetidine-1-carbonyl)benzyl)phthalazin-1(2H)-one]",≤ 5 nM,,
"O=C(c1cc(Cc2n[nH]c(=O)c3ccccc23)ccc1F)N1CC(CNCC2CC2)C1 [Compound I-145, 4-(3-(3-(((cyclopropylmethyl)amino)methyl)azetidine-1-carbonyl)-4-fluorobenzyl)phthalazin-1(2H)-one]",5 to 50 nM,,
"O=C(c1cc(Cc2n[nH]c(=O)c3ccccc23)ccc1F)N1CC(CNC2CCC2)C1 [Compound I-148, 4-(3-(3-((cyclobutylamino)methyl)azetidine-1-carbonyl)-4-fluorobenzyl)phthalazin-1(2H)-one]",≤ 5 nM,,472 ng·h/mL
"N#CC1(CNCC2CN(C(=O)c3cc(Cc4n[nH]c(=O)c5ccccc45)ccc3F)C2)CC1 [Compound I-151, 1-((((1-(2-fluoro-5-((4-oxo-3,4-dihydrophthalazin-1-yl)methyl)benzoyl)azetidin-3-yl)methyl)amino)methyl)cyclopropanecarbonitrile]",300 to 1000 nM,,
"C#CCN(CC1CN(C(=O)c2cc(Cc3n[nH]c(=O)c4ccccc34)ccc2F)C1)C1CC1 [Compound I-153, 4-(3-(3-((cyclopropyl(prop-2-yn-1-yl)amino)methyl)azetidine-1-carbonyl)-4-fluorobenzyl)phthalazin-1(2H)-one]",300 to 1000 nM,,
"CN(CC1CN(C(=O)c2cc(Cc3n[nH]c(=O)c4ccccc34)ccc2F)C1)C1CC1 [Compound I-154, 4-(3-(3-((cyclopropyl(methyl)amino)methyl)azetidine-1-carbonyl)-4-fluorobenzyl)phthalazin-1(2H)-one]",300 to 1000 nM,,
"CCN(CC1CN(C(=O)c2cc(Cc3n[nH]c(=O)c4ccccc34)ccc2F)C1)C1CC1 [Compound I-155, 4-(3-(3-((cyclopropyl(ethyl)amino)methyl)azetidine-1-carbonyl)-4-fluorobenzyl)phthalazin-1(2H)-one]",50 to 300 nM,,
